Laboratory results taken from PubChem BioAssay AID611 (The Scripps Research Institute Molecular Screening Center, 2007).
The source made the active and inactive calls.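 Rule for the calls: active = IC50 at or below 10 micromolar, estimated by hand when no curve fit or under half inhibition at top dose; inactive = IC50 above 10 micromolar.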

Biological target: Steroidogenic factor 1 (Homo sapiens) (UniProt Q13285)
Test: SF-1 inhibitors in Gal4 reporter counter-screen, dose response, counter-screen for RORA inhibitor project, cell-based, CHO-K1, Gal4-SF-1 LBD, luciferase luminescence (AID 611)
Conditions: CHO-K1 Gal4-SF-1 LBD luciferase reporter

Sequence of Steroidogenic factor 1 (Homo sapiens) (Q13285 whole entry, looked up, the tested form may be a part): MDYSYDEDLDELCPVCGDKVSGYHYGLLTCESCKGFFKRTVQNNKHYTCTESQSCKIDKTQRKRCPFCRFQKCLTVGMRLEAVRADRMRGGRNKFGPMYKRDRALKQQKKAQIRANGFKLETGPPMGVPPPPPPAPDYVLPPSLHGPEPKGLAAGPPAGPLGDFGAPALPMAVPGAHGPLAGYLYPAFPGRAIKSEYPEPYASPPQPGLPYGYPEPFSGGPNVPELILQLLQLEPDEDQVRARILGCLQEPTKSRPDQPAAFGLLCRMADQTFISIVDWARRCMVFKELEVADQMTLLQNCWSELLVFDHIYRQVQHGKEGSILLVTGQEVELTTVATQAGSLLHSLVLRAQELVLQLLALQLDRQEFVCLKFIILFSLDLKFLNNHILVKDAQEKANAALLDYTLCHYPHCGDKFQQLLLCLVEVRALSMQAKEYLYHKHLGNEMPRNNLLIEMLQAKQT

| Compound | IC50 |
| --- | --- |
| COC(=O)C1=C(CN2CCCc3ccccc32)NC(=O)NC1c1ccc(F)cc1 (centres undefined) | 6660 nM |
| O=C(O)CCCCCN1C(=O)CSC1=S | > 99000 nM (inactive) |
| O=C(/C=C\Nc1ccccn1)c1ccc(Cl)cc1 | 4880 nM |
| CC(=O)CC1OC(=O)C(Br)=C1NCc1ccccc1 (centres undefined) | inactive |

The remaining lines, values ahead:

| IC50 | Compound |
| --- | --- |
| 1500 nM | Cc1ccc(C(=O)/C=C/Nc2ccccn2)cc1 |
| 675 nM | COc1cc(/C=N/O)ccc1OCc1ccc(C(=O)O)cc1 |
| 1500 nM | O=C(/C=C\Nc1ccc2c(c1)OCO2)c1ccccn1 |
| 2550 nM | Cn1nc(CC(=O)Nc2ccc(N3CCN(C(=O)OC(C)(C)C)CC3)cc2)c2ccccc2c1=O |
| 2140 nM | O=S(=O)(c1ccc2c(c1)C(=NO)c1cc(S(=O)(=O)N3CCCCC3)ccc1-2)N1CCCCC1 |
